# Tests used:
# Assay type in all cases: binding
# [1] = target: broad panel of kinases (Homo sapiens, UniProt O43353); conditions: RIPK2; 1 μM
# [2] = target: broad panel of kinases (Homo sapiens, UniProt O94804); conditions: LOK; 1 μM
# [3] = target: broad panel of kinases (Homo sapiens, UniProt P00519, M351T); conditions: ABL1(M351T)-phosphorylated; 1 μM
# [4] = target: broad panel of kinases (Homo sapiens, UniProt P00533, G719S); conditions: EGFR(G719S); 1 μM
# [5] = target: broad panel of kinases (Homo sapiens, UniProt P00533, L858R/T790M); conditions: EGFR(L858R, T790M); 1 μM
# [6] = target: broad panel of kinases (Homo sapiens, UniProt P04049); conditions: RAF1; 1 μM
# [7] = target: broad panel of kinases (Homo sapiens, UniProt P07947); conditions: YES; 1 μM
# [8] = target: broad panel of kinases (Homo sapiens, UniProt P08069); conditions: IGF1R; 1 μM
# [9] = target: broad panel of kinases (Homo sapiens, UniProt P17948); conditions: FLT1; 1 μM
# [10] = target: broad panel of kinases (Homo sapiens, UniProt P21802); conditions: FGFR2; 1 μM
# [11] = target: broad panel of kinases (Homo sapiens, UniProt P29317); conditions: EPHA2; 1 μM
# [12] = target: broad panel of kinases (Homo sapiens, UniProt P42336, H1047L); conditions: PIK3CA(H1047L); 1 μM
# [13] = target: broad panel of kinases (Homo sapiens, UniProt P42679); conditions: CTK; 1 μM
# [14] = target: broad panel of kinases (Homo sapiens, UniProt P42684); conditions: ABL2; 1 μM
# [15] = target: broad panel of kinases (Homo sapiens, UniProt P45984); conditions: JNK2; 1 μM
# [16] = target: broad panel of kinases (Homo sapiens, UniProt P48736); conditions: PIK3CG; 1 μM
# [17] = target: broad panel of kinases (Homo sapiens, UniProt P51955); conditions: NEK2; 1 μM
# [18] = target: broad panel of kinases (Homo sapiens, UniProt P51956); conditions: NEK3; 1 μM
# [19] = target: broad panel of kinases (Homo sapiens, UniProt P57058); conditions: HUNK; 1 μM
# [20] = target: broad panel of kinases (Homo sapiens, UniProt P78356); conditions: PIP5K2B; 1 μM
# [21] = target: broad panel of kinases (Homo sapiens, UniProt Q02763); conditions: TIE2; 1 μM
# [22] = target: broad panel of kinases (Homo sapiens, UniProt Q06187); conditions: BTK; 1 μM
# [23] = target: broad panel of kinases (Homo sapiens, UniProt Q08881); conditions: ITK; 1 μM
# [24] = target: broad panel of kinases (Homo sapiens, UniProt Q12851); conditions: MAP4K2; 1 μM
# [25] = target: broad panel of kinases (Homo sapiens, UniProt Q13557); conditions: CAMK2D; 1 μM
# [26] = target: broad panel of kinases (Homo sapiens, UniProt Q16620); conditions: TRKB; 1 μM
# [27] = target: broad panel of kinases (Homo sapiens, UniProt Q86V86); conditions: PIM3; 1 μM
# [28] = target: broad panel of kinases (Homo sapiens, UniProt Q8WTQ7); conditions: GRK7; 1 μM
# [29] = target: broad panel of kinases (Homo sapiens, UniProt Q92918); conditions: HPK1; 1 μM
# [30] = target: broad panel of kinases (Homo sapiens, UniProt Q9BVS4); conditions: RIOK2; 1 μM
# [31] = target: broad panel of kinases (Homo sapiens, UniProt Q9BYT3); conditions: STK33; 1 μM
# [32] = target: broad panel of kinases (Homo sapiens, UniProt Q9H1R3); conditions: MYLK2; 1 μM
# [33] = target: broad panel of kinases (Homo sapiens, UniProt Q9P286); conditions: PAK7; 1 μM
# [34] = target: broad panel of kinases (Homo sapiens, UniProt Q9UBE8); conditions: NLK; 1 μM
# [35] = target: broad panel of kinases (Homo sapiens, UniProt Q9UM73); conditions: ALK; 1 μM
# [36] = target: broad panel of kinases (Homo sapiens, UniProt Q9Y463); conditions: DYRK1B; 1 μM
# [37] = target: broad panel of kinases (Plasmodium falciparum, UniProt P62344)
# broad panel of kinases (Homo sapiens, UniProt Q9H1R3), sequence (Q9H1R3 2-596 limits assumed): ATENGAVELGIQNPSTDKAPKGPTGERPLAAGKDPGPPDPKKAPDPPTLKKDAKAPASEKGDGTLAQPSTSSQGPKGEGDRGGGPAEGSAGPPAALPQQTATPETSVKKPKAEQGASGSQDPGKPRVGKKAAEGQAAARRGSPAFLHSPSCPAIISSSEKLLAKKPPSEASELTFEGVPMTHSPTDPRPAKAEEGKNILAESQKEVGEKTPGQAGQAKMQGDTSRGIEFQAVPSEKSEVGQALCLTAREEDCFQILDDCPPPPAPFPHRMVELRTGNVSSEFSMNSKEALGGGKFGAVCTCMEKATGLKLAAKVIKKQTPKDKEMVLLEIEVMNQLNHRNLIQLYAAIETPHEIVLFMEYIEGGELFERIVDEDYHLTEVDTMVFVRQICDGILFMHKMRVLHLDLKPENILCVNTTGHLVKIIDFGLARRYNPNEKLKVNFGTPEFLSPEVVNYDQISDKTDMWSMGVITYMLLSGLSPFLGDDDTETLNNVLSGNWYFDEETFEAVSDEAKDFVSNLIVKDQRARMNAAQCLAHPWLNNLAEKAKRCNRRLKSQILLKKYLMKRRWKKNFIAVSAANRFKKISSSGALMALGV
# broad panel of kinases (Homo sapiens, UniProt Q06187), sequence (Q06187 2-659 limits assumed): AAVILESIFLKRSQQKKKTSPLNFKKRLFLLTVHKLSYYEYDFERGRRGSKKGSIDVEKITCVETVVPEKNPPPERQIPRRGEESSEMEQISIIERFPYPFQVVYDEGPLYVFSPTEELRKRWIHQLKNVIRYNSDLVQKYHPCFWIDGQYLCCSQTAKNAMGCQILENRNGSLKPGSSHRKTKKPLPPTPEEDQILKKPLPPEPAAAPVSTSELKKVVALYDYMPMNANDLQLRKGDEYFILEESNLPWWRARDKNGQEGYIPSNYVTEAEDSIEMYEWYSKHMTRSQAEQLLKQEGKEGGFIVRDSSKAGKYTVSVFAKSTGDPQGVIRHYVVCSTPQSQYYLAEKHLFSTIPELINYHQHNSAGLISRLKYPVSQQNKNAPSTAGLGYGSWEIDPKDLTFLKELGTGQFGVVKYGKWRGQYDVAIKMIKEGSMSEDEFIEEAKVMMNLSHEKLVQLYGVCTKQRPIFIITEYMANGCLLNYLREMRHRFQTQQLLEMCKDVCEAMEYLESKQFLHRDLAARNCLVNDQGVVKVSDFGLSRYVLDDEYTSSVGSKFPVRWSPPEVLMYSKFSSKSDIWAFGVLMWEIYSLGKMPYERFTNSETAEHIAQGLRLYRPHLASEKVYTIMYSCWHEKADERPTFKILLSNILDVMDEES
# broad panel of kinases (Homo sapiens, UniProt P78356), sequence (P78356 2-416 limits assumed): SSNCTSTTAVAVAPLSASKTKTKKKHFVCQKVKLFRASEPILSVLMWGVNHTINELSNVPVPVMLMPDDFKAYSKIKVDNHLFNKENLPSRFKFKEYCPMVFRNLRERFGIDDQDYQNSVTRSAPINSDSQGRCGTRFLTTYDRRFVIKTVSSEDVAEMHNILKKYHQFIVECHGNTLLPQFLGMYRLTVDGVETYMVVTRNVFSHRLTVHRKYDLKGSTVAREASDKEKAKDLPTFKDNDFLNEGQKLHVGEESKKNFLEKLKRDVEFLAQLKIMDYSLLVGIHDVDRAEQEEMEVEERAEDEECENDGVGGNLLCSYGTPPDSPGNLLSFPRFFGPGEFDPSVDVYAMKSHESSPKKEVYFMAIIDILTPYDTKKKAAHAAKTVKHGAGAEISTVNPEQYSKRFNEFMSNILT
# broad panel of kinases (Homo sapiens, UniProt Q02763), sequence (Q02763 23-1124 limits assumed): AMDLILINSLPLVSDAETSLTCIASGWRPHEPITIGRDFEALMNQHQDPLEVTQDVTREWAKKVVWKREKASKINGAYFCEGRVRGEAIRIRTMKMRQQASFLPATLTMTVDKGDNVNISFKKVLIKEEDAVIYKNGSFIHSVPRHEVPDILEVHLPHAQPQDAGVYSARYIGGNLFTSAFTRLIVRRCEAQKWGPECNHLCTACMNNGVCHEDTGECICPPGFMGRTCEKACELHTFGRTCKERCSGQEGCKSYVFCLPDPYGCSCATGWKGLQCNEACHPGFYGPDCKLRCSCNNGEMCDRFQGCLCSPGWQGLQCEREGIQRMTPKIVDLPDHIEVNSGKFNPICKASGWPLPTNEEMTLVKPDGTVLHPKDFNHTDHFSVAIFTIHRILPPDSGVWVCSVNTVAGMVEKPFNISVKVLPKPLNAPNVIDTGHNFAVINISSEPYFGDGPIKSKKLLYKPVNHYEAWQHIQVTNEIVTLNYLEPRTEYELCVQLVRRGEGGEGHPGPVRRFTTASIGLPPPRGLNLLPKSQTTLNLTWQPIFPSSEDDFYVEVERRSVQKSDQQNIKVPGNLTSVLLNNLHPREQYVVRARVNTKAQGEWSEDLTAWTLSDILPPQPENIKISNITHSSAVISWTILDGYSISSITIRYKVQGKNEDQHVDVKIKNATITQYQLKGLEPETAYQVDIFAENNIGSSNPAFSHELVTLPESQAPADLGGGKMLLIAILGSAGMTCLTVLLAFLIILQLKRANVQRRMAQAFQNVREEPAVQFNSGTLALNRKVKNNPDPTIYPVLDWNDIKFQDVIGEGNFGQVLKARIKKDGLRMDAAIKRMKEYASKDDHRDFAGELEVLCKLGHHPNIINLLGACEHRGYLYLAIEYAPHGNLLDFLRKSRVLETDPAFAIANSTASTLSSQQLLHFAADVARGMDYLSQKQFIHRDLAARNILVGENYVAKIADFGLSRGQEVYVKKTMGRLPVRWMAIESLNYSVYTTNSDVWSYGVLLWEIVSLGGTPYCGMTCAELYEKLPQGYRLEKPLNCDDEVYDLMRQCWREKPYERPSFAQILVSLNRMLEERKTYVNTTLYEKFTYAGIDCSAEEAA
# broad panel of kinases (Homo sapiens, UniProt Q13557), sequence (Q13557 2-499 limits assumed): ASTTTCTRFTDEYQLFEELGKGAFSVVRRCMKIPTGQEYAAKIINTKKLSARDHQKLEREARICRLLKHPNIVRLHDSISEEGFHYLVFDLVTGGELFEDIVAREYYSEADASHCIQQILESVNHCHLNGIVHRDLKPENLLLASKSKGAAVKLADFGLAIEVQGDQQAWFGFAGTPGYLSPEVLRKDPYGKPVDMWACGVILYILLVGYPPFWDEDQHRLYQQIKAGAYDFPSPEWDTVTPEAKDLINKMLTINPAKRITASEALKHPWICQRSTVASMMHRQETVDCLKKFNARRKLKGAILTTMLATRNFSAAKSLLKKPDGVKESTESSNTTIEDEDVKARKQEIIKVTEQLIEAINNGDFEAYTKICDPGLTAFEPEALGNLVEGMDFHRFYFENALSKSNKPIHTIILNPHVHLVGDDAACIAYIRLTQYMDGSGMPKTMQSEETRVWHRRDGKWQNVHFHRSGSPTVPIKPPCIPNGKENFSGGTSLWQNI
# broad panel of kinases (Homo sapiens, UniProt Q9UM73), sequence (Q9UM73 19-1620 limits assumed): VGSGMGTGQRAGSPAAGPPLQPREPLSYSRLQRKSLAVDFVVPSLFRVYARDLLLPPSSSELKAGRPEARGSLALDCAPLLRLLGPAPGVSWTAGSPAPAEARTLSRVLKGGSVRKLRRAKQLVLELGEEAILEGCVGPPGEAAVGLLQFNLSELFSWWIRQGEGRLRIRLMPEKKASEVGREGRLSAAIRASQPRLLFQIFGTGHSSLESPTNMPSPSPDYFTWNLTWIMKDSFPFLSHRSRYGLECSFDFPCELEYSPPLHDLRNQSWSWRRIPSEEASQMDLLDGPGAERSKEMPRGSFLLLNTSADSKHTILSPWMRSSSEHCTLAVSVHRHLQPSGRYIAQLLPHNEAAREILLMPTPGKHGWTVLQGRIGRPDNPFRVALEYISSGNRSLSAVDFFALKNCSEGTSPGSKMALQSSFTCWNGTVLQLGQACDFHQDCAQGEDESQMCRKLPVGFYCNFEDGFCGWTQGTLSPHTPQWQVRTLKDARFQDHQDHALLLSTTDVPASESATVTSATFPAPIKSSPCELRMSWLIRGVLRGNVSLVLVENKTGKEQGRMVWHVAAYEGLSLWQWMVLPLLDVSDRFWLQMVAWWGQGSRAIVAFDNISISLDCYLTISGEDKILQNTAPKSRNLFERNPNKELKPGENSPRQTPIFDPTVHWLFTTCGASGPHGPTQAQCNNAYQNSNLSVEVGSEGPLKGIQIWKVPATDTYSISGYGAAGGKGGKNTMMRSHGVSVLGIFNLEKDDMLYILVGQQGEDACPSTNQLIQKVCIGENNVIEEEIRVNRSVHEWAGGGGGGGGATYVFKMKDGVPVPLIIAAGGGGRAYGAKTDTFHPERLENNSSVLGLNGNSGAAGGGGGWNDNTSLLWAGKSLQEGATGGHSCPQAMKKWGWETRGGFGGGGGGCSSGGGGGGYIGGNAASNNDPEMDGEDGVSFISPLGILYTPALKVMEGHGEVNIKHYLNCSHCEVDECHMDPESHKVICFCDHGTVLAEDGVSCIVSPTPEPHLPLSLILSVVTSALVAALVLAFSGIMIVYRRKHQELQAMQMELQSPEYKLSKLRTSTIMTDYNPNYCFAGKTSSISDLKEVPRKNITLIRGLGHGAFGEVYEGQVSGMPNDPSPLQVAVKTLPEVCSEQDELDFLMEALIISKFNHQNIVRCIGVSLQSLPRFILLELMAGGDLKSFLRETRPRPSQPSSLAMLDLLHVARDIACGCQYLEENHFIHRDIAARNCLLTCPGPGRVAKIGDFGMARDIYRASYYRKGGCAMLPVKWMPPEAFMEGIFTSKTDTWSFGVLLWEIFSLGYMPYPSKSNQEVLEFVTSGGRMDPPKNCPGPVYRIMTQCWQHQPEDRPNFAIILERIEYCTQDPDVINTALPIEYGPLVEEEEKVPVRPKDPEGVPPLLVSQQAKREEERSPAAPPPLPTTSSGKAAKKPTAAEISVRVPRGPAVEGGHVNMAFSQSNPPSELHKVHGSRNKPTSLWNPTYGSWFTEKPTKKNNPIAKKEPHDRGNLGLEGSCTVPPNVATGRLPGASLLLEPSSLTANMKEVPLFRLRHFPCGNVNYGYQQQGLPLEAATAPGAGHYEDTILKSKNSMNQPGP
compound,measurement,setting,value
C=CC(=O)N1CC[C@H](Nc2nc(CN3CCOCC3)cc(Nc3ncc(C(=O)Nc4c(C)cccc4C)s3)n2)C1 [Example I-2],percent of control binding remaining (lower = stronger binding),[1],14%
same,percent of control binding remaining (lower = stronger binding),[2],96%
same,percent of control binding remaining (lower = stronger binding),[3],0.6%
same,percent of control binding remaining (lower = stronger binding),[4],17%
same,percent of control binding remaining (lower = stronger binding),[5],48%
same,percent of control binding remaining (lower = stronger binding),[6],26%
same,percent of control binding remaining (lower = stronger binding),[7],0%
same,percent of control binding remaining (lower = stronger binding),[8],100%
same,percent of control binding remaining (lower = stronger binding),[9],93%
same,percent of control binding remaining (lower = stronger binding),[10],73%
same,percent of control binding remaining (lower = stronger binding),[11],0.2%
same,percent of control binding remaining (lower = stronger binding),[12],84%
same,percent of control binding remaining (lower = stronger binding),[13],67%
same,percent of control binding remaining (lower = stronger binding),[14],0.3%
same,percent of control binding remaining (lower = stronger binding),[15],100%
same,percent of control binding remaining (lower = stronger binding),[16],100%
same,percent of control binding remaining (lower = stronger binding),[17],100%
same,percent of control binding remaining (lower = stronger binding),[18],94%
same,percent of control binding remaining (lower = stronger binding),[19],100%
same,percent of control binding remaining (lower = stronger binding),[20],98%
same,percent of control binding remaining (lower = stronger binding),[21],100%
same,percent of control binding remaining (lower = stronger binding),[22],0%
same,percent of control binding remaining (lower = stronger binding),[23],100%
same,percent of control binding remaining (lower = stronger binding),[24],87%
same,percent of control binding remaining (lower = stronger binding),[25],91%
same,percent of control binding remaining (lower = stronger binding),[26],94%
same,percent of control binding remaining (lower = stronger binding),[27],97%
same,percent of control binding remaining (lower = stronger binding),[28],97%
same,percent of control binding remaining (lower = stronger binding),[29],51%
same,percent of control binding remaining (lower = stronger binding),[30],92%
same,percent of control binding remaining (lower = stronger binding),[31],86%
same,percent of control binding remaining (lower = stronger binding),[32],100%
same,percent of control binding remaining (lower = stronger binding),[33],96%
same,percent of control binding remaining (lower = stronger binding),[34],11%
same,percent of control binding remaining (lower = stronger binding),[35],97%
same,percent of control binding remaining (lower = stronger binding),[36],94%
same,% change compared to control,[37],24%
C=CC(=O)N1CC[C@H](Nc2nccc(Nc3ncc(C(=O)Nc4c(C)cccc4C)s3)n2)C1 [Example I-3],percent of control binding remaining (lower = stronger binding),[1],31%
same,percent of control binding remaining (lower = stronger binding),[2],97%
same,% change compared to control,[3],0.7%
same,percent of control binding remaining (lower = stronger binding),[4],7.6%
same,percent of control binding remaining (lower = stronger binding),[5],42%
same,percent of control binding remaining (lower = stronger binding),[6],26%
same,percent of control binding remaining (lower = stronger binding),[7],0%
same,percent of control binding remaining (lower = stronger binding),[8],100%
same,percent of control binding remaining (lower = stronger binding),[9],86%
same,percent of control binding remaining (lower = stronger binding),[10],88%
same,percent of control binding remaining (lower = stronger binding),[11],0.6%
same,percent of control binding remaining (lower = stronger binding),[12],100%
same,percent of control binding remaining (lower = stronger binding),[13],81%
same,percent of control binding remaining (lower = stronger binding),[14],0.25%
same,percent of control binding remaining (lower = stronger binding),[15],90%
same,percent of control binding remaining (lower = stronger binding),[16],100%
same,percent of control binding remaining (lower = stronger binding),[17],96%
same,percent of control binding remaining (lower = stronger binding),[18],95%
same,percent of control binding remaining (lower = stronger binding),[19],83%
same,percent of control binding remaining (lower = stronger binding),[20],100%
same,% change compared to control,[21],100%
same,percent of control binding remaining (lower = stronger binding),[22],0.05%
same,percent of control binding remaining (lower = stronger binding),[23],98%
same,percent of control binding remaining (lower = stronger binding),[24],91%
same,percent of control binding remaining (lower = stronger binding),[25],92%
same,percent of control binding remaining (lower = stronger binding),[26],92%
same,percent of control binding remaining (lower = stronger binding),[27],89%
same,percent of control binding remaining (lower = stronger binding),[28],96%
same,percent of control binding remaining (lower = stronger binding),[29],61%
same,percent of control binding remaining (lower = stronger binding),[30],77%
same,percent of control binding remaining (lower = stronger binding),[31],96%
same,percent of control binding remaining (lower = stronger binding),[32],100%
same,percent of control binding remaining (lower = stronger binding),[33],97%
same,percent of control binding remaining (lower = stronger binding),[34],9.4%
same,percent of control binding remaining (lower = stronger binding),[35],83%
same,percent of control binding remaining (lower = stronger binding),[36],74%
same,% change compared to control,[37],8.1%

# — patent US10844077B2, “Thiazolyl-containing compounds for treating proliferative diseases” (Dana-Farber Cancer Institute, Inc., priority 2014, dated 2020)
